# Structures can show the parent of a compound that is named as a salt.
# Tests used:
# Format in all cases: physicochemical
# [1] = Analysis of the stability samples of fesoterodine fumarate; conditions: after 2-6 months stability at 25° C. and above temperature; not observed during initial analysis
# Protocol: During analysis of the stability samples of fesoterodine fumarate, after 2-6 months stability at 25° C. and above temperature, the unknown impurity (1.82 RRT) detected which was not observed during initial analysis.
# The LC system, used for method development and forced degradation studies and method validation was Waters-Alliance (manufactured by Waters India Ltd) LC system with a photo diode detector. The out put signal was monitored and processed using Empower software system (designed by Waters India) on IBM computer (Digital Equipment Co). • The chromatographic column used was a Waters Aquity BEH C18 100 mm×2.1 mm column with 1.7 μm particles. The mobile phase consists buffer (1.4 g of Disodium hydrogen phosphate in 1000 mL of water pH-8.0 with ortho phosphoric acid), and solvent is acetonitrile. The flow rate of the mobile phase was kept at 0.3 ml/min. beginning with the gradient ratio of mobile phase buffer and solvent 50:50 (v/v), system was continued at the same ratio for 2 minutes. The ratio was changed linearly 30:70(v/v) within 7 minutes and again system was continued at the same ratio for 9 minutes. After 1.5 minutes the initial gradient of 50:50 is for 2.5 minutes to be conditioned far every analysis. The column temperature was maintained at 45° C. and the wavelength was monitored at a wavelength of 220 nm. […]
# [2] = Stability Study of Fesoterodine Fumarate at 40° C.+/−2° C. 75%+/−5% RH
# Protocol: (§1) Present inventors carried out the stability study of Fesoterodine Fumarate at different conditions and summarized the table shown below which easily indicate how the impurity at 1.82 RRT is increasingly generated.
# Stability Study of Fesoterodine Fumarate at 40° C.+/−2° C. 75%+/−5% RH
# (§2) The LC system, used for method development and forced degradation studies and method validation was Waters-Alliance (manufactured by Waters India Ltd) LC system with a photo diode detector. The out put signal was monitored and processed using Empower software system (designed by Waters India) on IBM computer (Digital Equipment Co). • The chromatographic column used was a Waters Aquity BEH C18 100 mm×2.1 mm column with 1.7 μm particles. The mobile phase consists buffer (1.4 g of Disodium hydrogen phosphate in 1000 mL of water pH-8.0 with ortho phosphoric acid), and solvent is acetonitrile. The flow rate of the mobile phase was kept at 0.3 ml/min. beginning with the gradient ratio of mobile phase buffer and solvent 50:50 (v/v), system was continued at the same ratio for 2 minutes. The ratio was changed linearly 30:70(v/v) within 7 minutes and again system was continued at the same ratio for 9 minutes. After 1.5 minutes the initial gradient of 50:50 is for 2.5 minutes to be conditioned far every analysis. The column temperature was maintained at 45° C. and the wavelength was monitored at a wavelength of 220 nm. The injection volume was 3 μL for related substances determination. Acetonitrile was used as diluent during the standard, and test samples preparation.
# [3] = Stability Study of Fesoterodine Fumarate at 25° C.+/−2° C. 60%+/−5% RH
# Protocol: as §1
# Stability Study of Fesoterodine Fumarate at 25° C.+/−2° C. 60%+/−5% RH
# as §2
# [4] = Stability Study of Fesoterodine Fumarate at 30° C.+/−2° C. 65%+/−5% RH
# Protocol: as §1
# Stability Study of Fesoterodine Fumarate at 30° C.+/−2° C. 65%+/−5% RH
# as §2
# [5] = Stability Study of Fesoterodine Fumarate at 2-8° C.
# Protocol: as §1
# Stability Study of Fesoterodine Fumarate at 2-8° C.
# as §2
smiles,measurement,setting,value
"CC(C)C(=O)Oc1ccc(CO)cc1[C@H](CCN(C(C)C)C(C)C)c1ccccc1 [Fesoterodine Fumarate, [2-[(1R)-3-(Di(propan-2-yl)amino)-1-phenylpropyl]-4-(hydroxymethyl)phenyl]2-methylpropanoate]",unknown impurity (1.82 RRT),[1],detected
same,0.29 RRT 0.29 RRT (Fumaric acid ester),[2]; 1 month,0.10%
same,1.82 RRT,[2]; 1 month,0.06%
same,Dihydroxy impurity (active metabolite),[2]; 1 month,0.64%
same,Purity of Fesoterodine fumarate,[2]; 1 month,98.92%
same,0.29 RRT 0.29 RRT (Fumaric acid ester),[2]; Initial,0.03%
same,Dihydroxy impurity (active metabolite),[2]; Initial,0.07%
same,Purity of Fesoterodine fumarate,[2]; Initial,99.69%
same,0.29 RRT (Fumaric acid ester),[3]; 1 month,0.05%
same,Dihydroxy impurity (active metabolite),[3]; 1 month,0.15%
same,Purity of Fesoterodine fumarate,[3]; 1 month,99.52%
same,0.29 RRT (Fumaric acid ester),[3]; 2 month,0.07%
same,Dihydroxy impurity (active metabolite),[3]; 2 month,0.27%
same,Purity of Fesoterodine fumarate,[3]; 2 month,99.38%
same,0.29 RRT (Fumaric acid ester),[3]; 3 month,0.08%
same,1.82 RRT,[3]; 3 month,0.01%
same,Dihydroxy impurity (active metabolite),[3]; 3 month,0.40%
same,Purity of Fesoterodine fumarate,[3]; 3 month,99.25%
same,0.29 RRT (Fumaric acid ester),[3]; 4 month,0.07%
same,1.82 RRT,[3]; 4 month,0.02%
same,Dihydroxy impurity (active metabolite),[3]; 4 month,0.53%
same,Purity of Fesoterodine fumarate,[3]; 4 month,99.11%
same,0.29 RRT (Fumaric acid ester),[3]; 6 month,0.12%
same,1.82 RRT,[3]; 6 month,0.11%
same,Dihydroxy impurity (active metabolite),[3]; 6 month,1.02
same,Purity of Fesoterodine fumarate,[3]; 6 month,98.42%
same,0.29 RRT (Fumaric acid ester),[3]; Initial,0.03%
same,Dihydroxy impurity (active metabolite),[3]; Initial,0.07%
same,Purity of Fesoterodine fumarate,[3]; Initial,99.69%
same,0.29 RRT (Fumaric acid ester),[4]; 1 month,0.06%
same,Dihydroxy impurity (active metabolite),[4]; 1 month,0.23%
same,Purity of Fesoterodine fumarate,[4]; 1 month,99.43%
same,0.29 RRT (Fumaric acid ester),[4]; 2 month,0.09%
same,1.82 RRT,[4]; 2 month,0.02%
same,Dihydroxy impurity (active metabolite),[4]; 2 month,0.45%
same,Purity of Fesoterodine fumarate,[4]; 2 month,99.15%
same,0.29 RRT (Fumaric acid ester),[4]; 3 month,0.10%
same,1.82 RRT,[4]; 3 month,0.07%
same,Dihydroxy impurity (active metabolite),[4]; 3 month,0.71%
same,Purity of Fesoterodine fumarate,[4]; 3 month,98.84%
same,0.29 RRT (Fumaric acid ester),[4]; 4 month,0.09%
same,1.82 RRT,[4]; 4 month,0.11%
same,Dihydroxy impurity (active metabolite),[4]; 4 month,0.76%
same,Purity of Fesoterodine fumarate,[4]; 4 month,98.74%
same,0.29 RRT (Fumaric acid ester),[4]; Initial,0.03%
same,Dihydroxy impurity (active metabolite),[4]; Initial,0.07%
same,Purity of Fesoterodine fumarate,[4]; Initial,99.69%
same,0.29 RRT (Fumaric acid ester),[5]; 3 month,0.04%
same,Dihydroxy impurity (active metabolite),[5]; 3 month,0.11%
same,Purity of Fesoterodine fumarate,[5]; 3 month,99.61%
same,0.29 RRT (Fumaric acid ester),[5]; 6 month,0.05%
same,Dihydroxy impurity (active metabolite),[5]; 6 month,0.15%
same,Purity of Fesoterodine fumarate,[5]; 6 month,99.52%
same,0.29 RRT (Fumaric acid ester),[5]; Initial,0.03%
same,Dihydroxy impurity (active metabolite),[5]; Initial,0.07%
same,Purity of Fesoterodine fumarate,[5]; Initial,99.69%
